pIC50: −log10 of the molar value. Counter-ions that a name gives are not always drawn.
Target: TDP-43 binding to heparin (HS-GAG) (Homo sapiens, UniProt Q13148)
Test: Inhibition of TDP-43 binding to immobilized heparin-BSA (ELISA)
Set-up: species or system porcine
Conditions: TDP43/Heparin Activity (IC-50), TDP-43, heparin-BSA
Experimental: Porcine intestinal mucosa heparin conjugated to Bovine Serum Albumin (Heparin-BSA) was prepared as described (Najjam, S. et al. 1997, Cytokine 12, 1013-1022). Heparin is a sulfated HS-GAG and is commonly used as a HS-GAG in biochemical and binding assays (Lindahl, U. and Kjellen, L. (2013) ibid). Heparin-BSA at 0.01 mg/ml in Phosphate Buffered Saline (PBS; pH 7.4) was added to a 96 well polystyrene ELISA plate (NUNC Cat. No. 449824; 100 μl per well) and incubated Over Night (ON) at 4 degrees Celsius. For negative controls, ELISA plates were coated with BSA instead of Heparin-BSA, using the same procedure. Following the incubation, the plate was washed consecutively, by immersion, with de-ionized water and PBS (pH 7.4). The ELISA plate was then blocked with nonfat milk (2%, 200 μl per well) for 2 hours at Room Temperature (RT) with gentle shaking. Following blocking, the plate was washed with de-ionized water then PBS (pH 7.4). GBAPs were dissolved and diluted in PBS (pH 6.5, supplemented with 0.1% BSA) at desired concentrations, added to the ELISA plates containing immobilized Heparin-BSA (100 μl per well) and incubated for 2 hours at RT with gentle shaking. Following incubation, the plate was washed with de-ionized water and three times with PBS (pH 6.5) plus Tween. Bound GBAP was detected by a monoclonal antibody specific for that GBAP, followed by incubation with secondary antibody conjugated to horseradish peroxidase (HRP). Antibody was diluted in PBS (pH 6.5 supplemented with 1% BSA). Following each incubation with antibody, the plate was washed with de-ionized water and three times with PBS (pH 6.5) wash buffer containing 0.1% Tween. The peroxidase substrate chromogen, TMB (Dako Cat. No. S1599) was added (100 μl per well) to the ELISA plate and incubated at room temperature. After 5 minutes ELISA Stop Solution (hydrochloric acid 1N, sulfuric acid 3N) was added (100 μl per well) to stop the peroxidase catalyzed colorimetric reaction. The Optical Density of the samples was measured at 450 nm using an ELISA plate reader (BioTek Synergy H1). Following color development, the % inhibition compared to control (BSA-coated plates) was determined. IC-50s were calculated using GraphPad Prism software.
The assay was performed as described in Example 43, with the following modifications.
Following to coating the plates with Heparin-BSA, plates were washed as described. The compounds were dissolved in DMSO at 10 mM final concentration and further diluted prior to assay. DMSO concentration in the screening well was up to 2%. Individual compounds were co-incubated with TDP-43 on plates containing immobilized heparin. TDP43 from R&D System (Cat. No. AP-190) was quickly frozen and kept in aliquots at −80 degrees Celsius. TDP-43 dissolved in PBS (pH 6.5, supplemented with BSA, 0.1%) was added to the ELISA plate (100 μl per well) and incubated for 2 hours at RT with gentle shaking. Following the incubation, the plate was washed with de-ionized water and three times with PBS (pH 6.5) plus Tween. Bound TDP-43 was detected by Anti-TDP43 Monoclonal Antibody (R&D System Cat. No. MAB7778), followed by secondary anti-IgG antibody conjugated to HRP (R&D System, Cat. No. HAF007). Following to color development with TMB, as described in Example 43, the Optical Density of the samples was measured at 450 nm using an ELISA plate reader. Following color development, the % inhibition compared to control (no compound, DMSO control) for every compound was determined.
As described in Example 43, Heparin in the form of Heparin-BSA conjugate is used as a source of HS-GAG. For each compound IC-50 value in TDP-43—heparin-BSA binding assay is shown in μM (micromolar). In some cases IC-50 was not measured and % inhibition at 30 μM compound concentration is shown instead. […] All assays were done on 96-well plates in duplicates and experiments were repeated at least twice. […]

Sequence of TDP-43 binding to heparin (HS-GAG) (Q13148 whole entry): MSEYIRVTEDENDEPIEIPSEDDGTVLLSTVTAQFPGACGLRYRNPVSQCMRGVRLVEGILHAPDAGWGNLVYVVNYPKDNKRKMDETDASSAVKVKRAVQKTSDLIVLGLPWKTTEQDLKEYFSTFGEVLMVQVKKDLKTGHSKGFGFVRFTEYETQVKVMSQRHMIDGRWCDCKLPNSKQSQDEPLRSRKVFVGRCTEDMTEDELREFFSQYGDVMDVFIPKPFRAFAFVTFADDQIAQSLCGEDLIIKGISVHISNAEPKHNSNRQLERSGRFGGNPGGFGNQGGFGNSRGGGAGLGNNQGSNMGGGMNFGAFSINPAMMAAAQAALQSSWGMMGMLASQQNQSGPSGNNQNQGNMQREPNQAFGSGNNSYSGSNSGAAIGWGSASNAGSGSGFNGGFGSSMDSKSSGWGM

SMILES | pIC50
C/C(=N\Nc1ncnc2cc(Cl)ccc12)c1cccc(N2CCN(C)CC2)c1 [Compound 30, 7-chloro-4-(2-(1-(3-(4-methylpiperazin-1-yl)phenyl)ethylidene)hydrazineyl)quinazoline] | 4.91
CC(=NNc1ccnc2cc(Cl)ccc12)c1ccc(-n2ccnc2)cc1 [Compound 36, 4-(2-(1-(4-(1H-imidazol-1-yl)phenyl)ethylidene)hydrazineyl)-7-chloroquinoline phosphate] | 4.32
Fc1ccc2c(N/N=C/c3ccc(-n4ccnc4)cc3)ccnc2c1 [Compound 5, (E)-4-(2-(4-(1H-imidazol-1-yl)benzylidene)hydrazinyl)-7-fluoroquinoline] | 4.15
C/C(=N\Nc1ncnc2cc(F)ccc12)c1ccc(-n2cc[n+](C)c2)nc1 [Compound 26, (E)-1-(5-(1-(2-(7-fluoroquinazolin-4-yl)hydrazineylidene)ethyl)pyridin-2-yl)-3-methyl-1H-imidazol-3-ium phosphoric acid salt] | 4.48
C(=N\Nc1ccc2c3c(cccc13)CC2)/c1ccc(-n2ccnc2)cc1 [Compound 8, (E)-1-(4-((2-(1,2-dihydroacenaphthylen-5-yl)hydrazineylidene)methyl)phenyl)-1H-imidazole] | 4.97

Same assay, conditions: TDP-43, heparin-BSA; read-out: TDP43/Heparin Activity (IC-50)

SMILES | pIC50
C/C(=N\Nc1ncnc2cc(Cl)ccc12)c1ccc(-n2cc(C)nc2C)nc1 [Compound 18, (E)-7-chloro-4-(2-(1-(6-(2,4-dimethyl-1H-imidazol-1-yl)pyridin-3-yl)ethylidene)hydrazineyl)quinazoline phosphoric acid salt] | 5.32
C/C(=N\Nc1ncnc2cc(Cl)ccc12)c1ccc(-n2cc(C)nc2C)nc1 [Compound 27, (E)-7-chloro-4-(2-(1-(6-(2,4-dimethyl-1H-imidazol-1-yl)pyridin-3-yl)ethylidene)hydrazineyl)quinazoline hydrochloride] | 5.66

Same assay, conditions: read-out: TDP43/Heparin Activity (% inhibition class)

SMILES | inhibition at 30 µM
CN1CCN(c2cc(Nc3ccnc4cc(Cl)ccc34)ccn2)CC1 [Compound 20, 7-chloro-N-(2-(4-methylpiperazin-1-yl)pyridin-4-yl)quinolin-4-amine] | < 30%
CCN(CC)Cc1cccc(Nc2ccnc3cc(Cl)ccc23)c1 [Compound 42, 7-chloro-N-(3-((diethylamino)methyl)phenyl)quinolin-4-amine] | < 30%
COc1ccc2c(NN=Cc3ccc(-n4ccnc4)c(C)c3)ccnc2c1 [Compound 12, 4-(2-(4-(1H-imidazol-1-yl)-3-methylbenzylidene)hydrazineyl)-7-methoxyquinoline] | < 30%
C[n+]1ccc(/C=N\Nc2ccnc3ccccc23)cc1 [Compound 9, (Z)-1-methyl-4-((2-(quinolin-4-yl)hydrazono)methyl)pyridin-1-ium iodide] | < 30%
CC(=NNc1ccnc2cc(Cl)ccc12)c1ccc(-n2cc[n+](C)c2)nc1 [Compound 23, 1-(5-(1-(2-(7-chloroquinolin-4-yl)hydrazineylidene)ethyl)pyridin-2-yl)-3-methyl-1H-imidazol-3-ium iodide] | < 30%
C/C(=N\Nc1ncnc2cc(Cl)ccc12)c1ccc(-n2cncn2)nc1 [Compound 32, (E)-4-(2-(1-(6-(1H-1,2,4-triazol-1-yl)pyridin-3-yl)ethylidene)hydrazineyl)-7-chloroquinazoline] | < 30%
O=S1(=O)CCN(Cc2ccc(/C=N/Nc3ccnc4cc(F)ccc34)cc2)CC1 [Compound 10, (E)-4-(4-((2-(7-fluoroquinolin-4-yl)hydrazono)methyl)benzyl)thiomorpholine 1,1-dioxide] | > 30%
Cc1cn(-c2ccc(Nc3cncc4cc(Cl)ccc34)cn2)c(C)n1 [Compound 37, 7-chloro-N-(6-(2,4-dimethyl-1H-imidazol-1-yl)pyridin-3-yl)isoquinolin-4-amine phosphoric acid salt] | < 30%
COc1cc(Nc2cncc3cc(Cl)ccc23)cnc1-n1cnc(C)c1C [Compound 33, 7-chloro-N-(6-(4,5-dimethyl-1H-imidazol-1-yl)-5-methoxypyridin-3-yl)isoquinolin-4-amine phosphoric acid salt] | < 30%

Source: patent US20240398783A1, “Compounds and Pharmaceutical Compositions Comprising Inhibitors of Amyloid Peptide Interactions with Glycosaminoglycans, Methods of Treatment and Use Thereof” (Gismo Therapeutics, Inc., priority 2021, published 2024)
